{
  "source": "patent EP4768018A1",
  "about": "“TOPICAL GEL FOR JAK INHIBITOR AND USE THEREOF” (Prime Gene Therapeutics Co., Ltd., priority 2023, dated 2025)",
  "key": {"[1]": {"assay": "Solubility of crystal forms in 20% propylene glycol at 32°C", "assay_type": "physicochemical", "method": "(§1) Solubility Study of Various Crystal Forms\nSolubility in 20% Propylene Glycol at 32°C (µg/mL)"}, "[2]": {"assay": "Solubility of crystal forms at different pH (37°C, 24 h)", "assay_type": "physicochemical", "method": "as §1\nSolubility Measurement Results (37°C, 24 h)"}, "[3]": {"assay": "Long-term (24 months) stability study of crystal forms", "assay_type": "physicochemical", "method": "In accordance with the stability study guidelines issued by the China's National Medical Products Administration (NMPA), stability studies were conducted on Crystal Forms I, IIa, and IIb. Samples were packaged in pharmaceutical low-density polyethylene bags, and long-term stability (24 months) was evaluated."}, "[4]": {"assay": "Crystal form conversion (room temperature; in the gel formulation, XRPD)", "assay_type": "physicochemical", "conditions": "after 3 days; XRPD, FIG. 5 to FIG. 6", "method": "Crystal Form IIa converts to Crystal Form IIb within 1 hour at room temperature (58.6% RH). During the preparation of topical gel formulation, Crystal Form I and Crystal Form IIb were respectively used as active pharmaceutical ingredients."}, "[5]": {"assay": "Transdermal test of crystal forms as topical gel in rats (permeation, drug content in skin by LC/MS/MS)", "assay_type": "in vivo, rat", "conditions": "topical gel according to the compositions of Example 1; FIG. 10A and FIG. 10B; Crystal Form I versus Crystal Form IIb", "method": "Crystal Forms I and IIb were prepared into topical gel formulations according to the compositions of Example 1, and transdermal tests were immediately conducted to determine their respective transdermal rates.\nBlood samples were collected at 0.25, 0.5, 1, 2, 4, 6, 8, and 24 hours after topical administration. Using a small animal anesthesia machine, 0.3 mL of whole blood was collected from the retro-orbital venous plexus under isoflurane anesthesia and placed in heparin anticoagulant tubes. Samples were centrifuged at 4°C, 4000 rpm for 5 minutes, plasma was transferred to centrifuge tubes, and stored at -80°C until analysis. Samples in plasma were extracted using protein precipitation, and the extract was analyzed by LC/MS/MS. After the test, the drug on skin was washed off, and the rat skin at administration site was excised, homogenized, and analyzed by LC/MS/MS for drug content in the skin. Table 4 Drug Concentration in Skin 24 h After Topical Administration"}},
  "data": [
    {"smiles": "CC(C)S(=O)(=O)N1CC(CC#N)(n2cc(-c3ncnc4[nH]ccc34)c(N)n2)C1", "note": "[Crystal Form I, 2-{3-[3-amino-4-(7H-pyrrolo[2,3-d]pyrimidin-4-yl)-1H-pyrazol-1-yl]-1-(isopropylsulfonyl)azetidin-3-yl}acetonitrile Crystal Form I]", "values": [
      {"measurement": "Solubility in 20% Propylene Glycol at 32°C", "setting": "[1]; 10 min", "result": 12.7, "unit": "µg/mL"},
      {"measurement": "Solubility in 20% Propylene Glycol at 32°C", "setting": "[1]; 30 min", "result": 26.9, "unit": "µg/mL"},
      {"measurement": "Solubility in 20% Propylene Glycol at 32°C", "setting": "[1]; 1 h, 60 min", "result": 35.8, "unit": "µg/mL"},
      {"measurement": "Solubility in 20% Propylene Glycol at 32°C", "setting": "[1]; 2 h, 120 min", "result": 42.1, "unit": "µg/mL"},
      {"measurement": "Solubility Conc.", "setting": "[2]; pH 1.0, 1440 min", "result": 464.2, "unit": "µg/mL"},
      {"measurement": "Solubility Conc.", "setting": "[2]; pH 2.0, 1440 min", "result": 37.8, "unit": "µg/mL"},
      {"measurement": "Solubility Conc.", "setting": "[2]; pH 3.8, 1440 min", "result": 2.3, "unit": "µg/mL"},
      {"measurement": "Solubility Conc.", "setting": "[2]; pH 4.5, 1440 min", "result": 1.8, "unit": "µg/mL"},
      {"measurement": "Solubility Conc.", "setting": "[2]; pH 5.5, 1440 min", "result": 1.6, "unit": "µg/mL"},
      {"measurement": "Appearance", "setting": "[3]; 0 month", "result": "Off-white powder"},
      {"measurement": "Content", "setting": "[3]; 0 month", "result": 99.9, "unit": "%"},
      {"measurement": "Loss on Drying", "setting": "[3]; 0 month", "result": 0.08, "unit": "%"},
      {"measurement": "Related Substances Max Unknown Single Impurity", "setting": "[3]; 0 month", "result": 0.17, "unit": "%"},
      {"measurement": "Related Substances Total Impurity", "setting": "[3]; 0 month", "result": 0.58, "unit": "%"},
      {"measurement": "Appearance", "setting": "[3]; 3 month", "result": "Off-white powder"},
      {"measurement": "Loss on Drying", "setting": "[3]; 3 month", "result": 0.06, "unit": "%"},
      {"measurement": "Related Substances Max Unknown Single Impurity", "setting": "[3]; 3 month", "result": 0.16, "unit": "%"},
      {"measurement": "Related Substances Total Impurity", "setting": "[3]; 3 month", "result": 0.57, "unit": "%"},
      {"measurement": "Content", "setting": "[3]; 3 month, 131040 min", "result": 100.1, "unit": "%"},
      {"measurement": "Appearance", "setting": "[3]; 6 month", "result": "Off-white powder"},
      {"measurement": "Loss on Drying", "setting": "[3]; 6 month", "result": 0.08, "unit": "%"},
      {"measurement": "Related Substances Max Unknown Single Impurity", "setting": "[3]; 6 month", "result": 0.17, "unit": "%"},
      {"measurement": "Related Substances Total Impurity", "setting": "[3]; 6 month", "result": 0.57, "unit": "%"},
      {"measurement": "Content", "setting": "[3]; 6 month, 263520 min", "result": 100.0, "unit": "%"},
      {"measurement": "Appearance", "setting": "[3]; 9 month", "result": "Off-white powder"},
      {"measurement": "Loss on Drying", "setting": "[3]; 9 month", "result": 0.11, "unit": "%"},
      {"measurement": "Related Substances Max Unknown Single Impurity", "setting": "[3]; 9 month", "result": 0.17, "unit": "%"},
      {"measurement": "Related Substances Total Impurity", "setting": "[3]; 9 month", "result": 0.57, "unit": "%"},
      {"measurement": "Content", "setting": "[3]; 9 month, 394560 min", "result": 99.8, "unit": "%"},
      {"measurement": "Appearance", "setting": "[3]; 12 month", "result": "Off-white powder"},
      {"measurement": "Loss on Drying", "setting": "[3]; 12 month", "result": 0.09, "unit": "%"},
      {"measurement": "Related Substances Max Unknown Single Impurity", "setting": "[3]; 12 month", "result": 0.17, "unit": "%"},
      {"measurement": "Related Substances Total Impurity", "setting": "[3]; 12 month", "result": 0.55, "unit": "%"},
      {"measurement": "Content", "setting": "[3]; 12 month, 525600 min", "result": 99.9, "unit": "%"},
      {"measurement": "Appearance", "setting": "[3]; 18 month", "result": "Off-white powder"},
      {"measurement": "Loss on Drying", "setting": "[3]; 18 month", "result": 0.12, "unit": "%"},
      {"measurement": "Related Substances Max Unknown Single Impurity", "setting": "[3]; 18 month", "result": 0.18, "unit": "%"},
      {"measurement": "Related Substances Total Impurity", "setting": "[3]; 18 month", "result": 0.62, "unit": "%"},
      {"measurement": "Content", "setting": "[3]; 18 month, 789120 min", "result": 99.7, "unit": "%"},
      {"measurement": "Appearance", "setting": "[3]; 24 month", "result": "Off-white powder"},
      {"measurement": "Loss on Drying", "setting": "[3]; 24 month", "result": 0.10, "unit": "%"},
      {"measurement": "Related Substances Max Unknown Single Impurity", "setting": "[3]; 24 month", "result": 0.16, "unit": "%"},
      {"measurement": "Related Substances Total Impurity", "setting": "[3]; 24 month", "result": 0.59, "unit": "%"},
      {"measurement": "Content", "setting": "[3]; 24 month, 1.0512e+06 min", "result": 99.8, "unit": "%"},
      {"measurement": "stability study result in words", "setting": "[3]; 24 months", "result": "good chemical stability"},
      {"measurement": "crystal form of the active pharmaceutical ingredient in the final gel formulation", "setting": "[4]", "result": "exclusively in form IIb"},
      {"measurement": "transdermal performance", "setting": "[5]", "result": "better transdermal performance"}
    ]}
  ]
}
